# Measurements reported in US20040116330A1, “Preventive/therapeutic method for cancer” (priority 2001, published 2004).
row,SMILES,melting point [°C]
1,"Cc1ccc(/C=C/c2nc(COc3ccc(CCCCn4ccnc4CCO)cc3)co2)cc1 [Compound B10, 2-[1-[4-[4-[[2-[(E)-2-(4-methylphenyl)ethenyl]-1,3-oxazol-4-yl]methoxy]phenyl]butyl]-1H-imidazol-2-yl]-1-ethanol]",108 to 109
2,"OCC(O)Cc1nccn1CCCc1cccc(OCc2coc(/C=C/c3ccc(F)cc3F)n2)c1 (stereo not shown) [Compound B27, 3-(1-{3-[3-({2-[(E)-2-(2,4-difluorophenyl)ethenyl]-1,3-oxazol-4-yl}methoxy)phenyl]propyl}-1H-imidazol-2-yl)-1,2-propanediol]",92 to 94
3,"FC(F)(F)c1ccc(/C=C/c2nc(COc3ccc(CCCn4ccnn4)cc3)co2)cc1 [Compound B5, 1-(3-{4-[(2-((E)-2-[4-(trifluoromethyl)phenyl]ethenyl)-1,3-oxazol-4-yl)methoxy]phenyl)propyl)-1H-1,2,3-triazole]",157 to 158
4,"OCCc1nccn1CCCCc1ccc(OCc2coc(/C=C/c3ccc(F)cc3F)n2)cc1 [Compound B19, 2-[1-[4-[4-[[2-[(E)-2-(2,4-difluorophenyl)ethenyl]-1,3-oxazol-4-yl]methoxy]phenyl]butyl]-1H-imidazol-2-yl]-1-ethanol]",93 to 95
5,"Fc1ccc(/C=C/c2nc(COc3cccc(CCCn4ccnn4)c3)co2)c(F)c1 [Compound B8, 1-{3-[3-({2-[(E)-2-(2,4-difluorophenyl)ethenyl]-1,3-oxazol-4-yl}methoxy)phenyl]propyl}-1H-1,2,3-triazole]",89 to 90
6,"Cc1cccc(/C=C/c2nc(COc3ccc(CCCCn4ccnc4CCO)cc3)co2)c1 [Compound B11, 2-[1-[4-[4-[[2-[(E)-2-(3-methylphenyl)ethenyl]-1,3-oxazol-4-yl]methoxy]phenyl]butyl]-1H-imidazol-2-yl]-1-ethanol]",109 to 111
7,"OCC(O)Cc1nccn1CCCc1cccc(OCc2coc(/C=C/c3ccc(C(F)(F)F)cc3)n2)c1 (stereo not shown) [Compound B25, 3-[1-(3-{3-[(2-{(E)-2-[4-(trifluoromethyl)phenyl]ethenyl}-1,3-oxazol-4-yl)methoxy]phenyl]propyl)-1H-imidazol-2-yl]-1,2-propanediol]",102 to 104
8,"OCC(O)Cc1nccn1CCCCc1ccc(OCc2coc(/C=C/c3c(F)cccc3F)n2)cc1 (stereo not shown) [Compound B28, 3-[1-[4-[4-[[2-[(E)-2-(2,6-difluorophenyl)ethenyl]-1,3-oxazol-4-yl]methoxy]phenyl]butyl]-1H-imidazol-2-yl]-1,2-propanediol]",123 to 125
9,"OCC(O)Cc1nccn1CCCCc1ccc(OCc2coc(/C=C/c3ccc(F)cc3)n2)cc1 (stereo not shown) [Compound B23, 3-(1-{4-[4-({2-[(E)-2-(4-fluorophenyl)ethenyl]-1,3-oxazol-4-yl}methoxy)phenyl]butyl}-1H-imidazol-2-yl)-1,2-propanediol]",114 to 116
10,"Fc1ccc(/C=C/c2nc(COc3ccc(CCCCn4ccnn4)cc3)co2)cc1 [Compound B2, 1-{4-[4-({2-[(E)-2-(4-fluorophenyl)ethenyl]-1,3-oxazol-4-yl}methoxy)phenyl]butyl}-1H-1,2,3-triazole]",124 to 125
11,"OCCc1nccn1CCCCc1ccc(OCc2coc(/C=C/c3ccc(Br)cc3)n2)cc1 [Compound B16, 2-[1-[4-[4-[[2-[(E)-2-(4-bromophenyl)ethenyl]-1,3-oxazol-4-yl]methoxy]phenyl]butyl]-1H-imidazol-2-yl]-1-ethanol]",149 to 150
12,"Fc1ccc(/C=C/c2nc(COc3ccc(CCCCn4ccnn4)cc3)co2)c(F)c1 [Compound B7, 1-{4-[4-({2-[(E)-2-(2,4-difluorophenyl)ethenyl]-1,3-oxazol-4-yl}methoxy)phenyl]butyl}-1H-1,2,3-triazole]",115 to 117
13,"OCC(O)Cc1nccn1CCCCc1ccc(OCc2coc(/C=C/c3ccc(C(F)(F)F)cc3)n2)cc1 (stereo not shown) [Compound B24, 3-[1-(4-(4-[(2-{(E)-2-[4-(trifluoromethyl)phenyl]ethenyl)-1,3-oxazol-4-yl)methoxy]phenyl}butyl)-1H-imidazol-2-yl]-1,2-propanediol]",142 to 143
14,"Fc1ccc(/C=C/c2nc(COc3cccc(CCCn4ccnn4)c3)co2)cc1 [Compound B3, 1-{3-[3-({2-[(E)-2-(4-fluorophenyl)ethenyl]-1,3-oxazol-4-yl}methoxy)phenyl]propyl}-1H-1,2,3-triazole]",105 to 106
15,"Cc1cccc(/C=C/c2nc(COc3ccc(CCCCn4ccnc4CC(O)CO)cc3)co2)c1 (stereo not shown) [Compound B22, 3-(1-{4-[4-({2-[(E)-2-(3-methylphenyl)ethenyl]-1,3-oxazol-4-yl}methoxy)phenyl]butyl}-1H-imidazol-2-yl)-1,2-propanediol]",102 to 104
16,"OCCc1nccn1CCCCc1ccc(OCc2coc(/C=C/c3ccc(F)cc3)n2)cc1 [Compound B14, 2-(1-{4-[4-({2-[(E)-2-(4-fluorophenyl)ethenyl]-1,3-oxazol-4-yl}methoxy)phenyl]butyl)-1H-imidazol-2-yl)-1-ethanol]",130 to 132
17,"OCC(O)Cc1nccn1CCCCc1ccc(OCc2coc(/C=C/c3ccc(F)cc3F)n2)cc1 (stereo not shown) [Compound B26, 3-(1-{4-[4-({2-[(E)-2-(2,4-difluorophenyl)ethenyl]-1,3-oxazol-4-yl)methoxy)phenyl]butyl}-1H-imidazol-2-yl)-1,2-propanediol]",126 to 128
18,"Cc1ccccc1/C=C/c1nc(COc2ccc(CCCCn3ccnc3CCO)cc2)co1 [Compound B12, 2-[1-[4-[4-[[2-[(E)-2-(2-methylphenyl)ethenyl]-1,3-oxazol-4-yl]methoxy]phenyl]butyl]-1H-imidazol-2-yl]-1-ethanol]",91 to 93
19,"FC(F)(F)c1ccc(/C=C/c2nc(COc3cccc(CCCn4ccnn4)c3)co2)cc1 [Compound B6, 1-(3-{3-[(2-((E)-2-[4-(trifluoromethyl)phenyl]ethenyl}-1,3-oxazol-4-yl)methoxy]phenyl}propyl)-1H-1,2,3-triazole]",115 to 116
20,"OCCc1nccn1CCCc1ccc(OCc2coc(/C=C/c3ccc(F)cc3F)n2)cc1 [Compound B20, 2-[1-[3-[4-[[2-[(E)-2-(2,4-difluorophenyl)ethenyl]-1,3-oxazol-4-yl]methoxy]phenyl]propyl]-1H-imidazol-2-yl]-1-ethanol]",94 to 96
21,"CCc1ccc(/C=C/c2nc(COc3ccc(CCCCn4ccnc4CCO)cc3)co2)cc1 [Compound B13, 2-[1-[4-[4-[[2-[(E)-2-(4-ethylphenyl)ethenyl]-1,3-oxazol-4-yl]methoxy]phenyl]butyl]-1H-imidazol-2-yl]-1-ethanol]",94 to 95
22,"OCCc1nccn1CCCCc1ccc(OCc2coc(/C=C/c3ccc(Cl)cc3)n2)cc1 [Compound B15, 2-[1-[4-[4-[[2-[(E)-2-(4-chlorophenyl)ethenyl]-1,3-oxazol-4-yl]methoxy]phenyl]butyl]-1H-imidazol-2-yl]-1-ethanol]",127 to 128
